Source: patent publication US20230085307A1, “PYRIDAZINONE COMPOUND AND HERBICIDE” (NISSAN CHEMICAL CORPORATION, priority 2019, published 2023)

How the values were obtained:
Italian ryegrass [1] = assay: Test Example 4: herbicidal effect by soil treatment (Table 19, symbol K); type: in vivo, Italian ryegrass (Lolium multiflorum); details: amount of applied herbicide 320 g/ha
In short: (§1)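 In this soil treatment, the formulated compound reached the seeds only through the soil: seeds were buried about 1.5 cm deep in sterilized diluvial soil, then the diluted emulsion was sprayed over the surface. After three weeks at 25° C. to 30° C. in a greenhouse, effects were graded on criteria from an earlier test.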

Japanese bulrush = assay: Test Example 2: herbicidal activity, application during weed generation under submerged conditions (Table 17, symbol B); type: in vivo, Japanese bulrush (Schoenoplectus juncoides); details: AAH 320 g/ha; application during weed generation, submerged conditions
In short: (§2)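 Effect on each weed is rated three weeks post-treatment, using the same scoring criteria as the preceding test. Plants grow from mixed-sown seed in flooded alluvial soil (4 cm water) at 25° C. to 30° C., and are treated at one to two leaves with diluted emulsion dropped onto the water.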

false cleavers [2] = assay: Test Example 5: herbicidal effect by foliage application, plastic box (Table 20, symbol Q); type: in vivo, false cleavers (Galium spurium); details: foliage application, 320 g/ha
In short: (§3)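 Plants were sown into sterilized diluvial soil under about 1.5 cm cover and kept in a greenhouse at 25° C. to 30° C. Fourteen days on, foliage received an even spray of the diluted emulsion. Herbicidal or crop effect was judged three weeks afterwards.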

blackgrass = assay: Test Example 5: herbicidal effect by foliage application, plastic box (Table 20, symbol J); type: in vivo, blackgrass (Alopecurus myosuroides); details: foliage application, 320 g/ha
In short: as §3

velvetleaf [3] = assay: Test Example 5: herbicidal effect by foliage application, plastic box (Table 20, symbol M); type: in vivo, velvetleaf (Abutilon theophrasti); details: foliage application, 320 g/ha
In short: as §3

rice flat sedge = assay: Test Example 3: herbicidal effect by foliage application, Wagner pot (Table 18, symbol E); type: in vivo, rice flat sedge (Cyperus iria); details: 320 g/ha
In short: (§4)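 Plants were sown in alluvial soil held under 0.1–0.5 cm standing water and grown 14 days in a greenhouse at 25–30 °C. An emulsifiable formulation, water-diluted to the set dose, was then sprayed onto the foliage, and effects were scored three weeks later using previously defined criteria.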

Italian ryegrass [4] = assay: Test Example 5: herbicidal effect by foliage application, plastic box (Table 20, symbol K); type: in vivo, Italian ryegrass (Lolium multiflorum); details: foliage application, 320 g/ha
In short: as §3

chickweed [5] = assay: Test Example 4: herbicidal effect by soil treatment (Table 19, symbol P); type: in vivo, common chickweed (Stellaria media); details: amount of applied herbicide 320 g/ha
In short: as §1

green foxtail [6] = assay: Test Example 5: herbicidal effect by foliage application, plastic box (Table 20, symbol G); type: in vivo, green foxtail (Setaria viridis); details: foliage application, 320 g/ha
In short: as §3

windgrass [7] = assay: Test Example 5: herbicidal effect by foliage application, plastic box (Table 20, symbol L); type: in vivo, windgrass (Apera spica-venti); details: foliage application, 320 g/ha
In short: as §3

southern crabgrass [8] = assay: Test Example 4: herbicidal effect by soil treatment (Table 19, symbol F); type: in vivo, southern crabgrass (Digitaria ciliaris); details: amount of applied herbicide 320 g/ha
In short: as §1

redroot pigweed [9] = assay: Test Example 5: herbicidal effect by foliage application, plastic box (Table 20, symbol N); type: in vivo, redroot pigweed (Amaranthus retroflexus); details: foliage application, 320 g/ha
In short: as §3

green foxtail [10] = assay: Test Example 4: herbicidal effect by soil treatment (Table 19, symbol G); type: in vivo, green foxtail (Setaria viridis); details: amount of applied herbicide 320 g/ha
In short: as §1

oval-leafed pondweed = assay: Test Example 2: herbicidal activity, application during weed generation under submerged conditions (Table 17, symbol C); type: in vivo, oval-leafed pondweed (Monochoria vaginalis); details: AAH 320 g/ha; application during weed generation, submerged conditions
In short: as §2

chickweed [11] = assay: Test Example 5: herbicidal effect by foliage application, plastic box (Table 20, symbol P); type: in vivo, common chickweed (Stellaria media); details: foliage application, 320 g/ha
In short: as §3

wild oat [12] = assay: Test Example 4: herbicidal effect by soil treatment (Table 19, symbol I); type: in vivo, wild oat (Avena fatua); details: amount of applied herbicide 320 g/ha
In short: as §1

barnyard grass [13] = assay: Test Example 4: herbicidal effect by soil treatment (Table 19, symbol H); type: in vivo, barnyard grass (Echinochloa crus-galli); details: amount of applied herbicide 320 g/ha
In short: as §1

lambsquarters [14] = assay: Test Example 4: herbicidal effect by soil treatment (Table 19, symbol O); type: in vivo, lambsquarters (Chenopodium album); details: amount of applied herbicide 320 g/ha
In short: as §1

persian speedwell [15] = assay: Test Example 4: herbicidal effect by soil treatment (Table 19, symbol R); type: in vivo, Persian speedwell (Veronica persica); details: amount of applied herbicide 320 g/ha
In short: as §1

false cleavers [16] = assay: Test Example 4: herbicidal effect by soil treatment (Table 19, symbol Q); type: in vivo, false cleavers (Galium spurium); details: amount of applied herbicide 320 g/ha
In short: as §1

barnyard grass [17] = assay: Test Example 5: herbicidal effect by foliage application, plastic box (Table 20, symbol H); type: in vivo, barnyard grass (Echinochloa crus-galli); details: foliage application, 320 g/ha
In short: as §3

Chinese sprangletop = assay: Test Example 3: herbicidal effect by foliage application, Wagner pot (Table 18, symbol D); type: in vivo, chinese sprangletop (Leptochloa chinensis); details: 320 g/ha
In short: as §4

persian speedwell [18] = assay: Test Example 5: herbicidal effect by foliage application, plastic box (Table 20, symbol R); type: in vivo, Persian speedwell (Veronica persica); details: foliage application, 320 g/ha
In short: as §3

lambsquarters [19] = assay: Test Example 5: herbicidal effect by foliage application, plastic box (Table 20, symbol O); type: in vivo, lambsquarters (Chenopodium album); details: foliage application, 320 g/ha
In short: as §3

late watergrass = assay: Test Example 2: herbicidal activity, application during weed generation under submerged conditions (Table 17, symbol A); type: in vivo, late watergrass (Echinochloa oryzicola); details: AAH 320 g/ha; application during weed generation, submerged conditions
In short: as §2

wild oat [20] = assay: Test Example 5: herbicidal effect by foliage application, plastic box (Table 20, symbol I); type: in vivo, wild oat (Avena fatua); details: foliage application, 320 g/ha
In short: as §3

velvetleaf [21] = assay: Test Example 4: herbicidal effect by soil treatment (Table 19, symbol M); type: in vivo, velvetleaf (Abutilon theophrasti); details: amount of applied herbicide 320 g/ha
In short: as §1

southern crabgrass [22] = assay: Test Example 5: herbicidal effect by foliage application, plastic box (Table 20, symbol F); type: in vivo, southern crabgrass (Digitaria ciliaris); details: foliage application, 320 g/ha
In short: as §3

barnyard grass [23] = assay: Test Example 3: herbicidal effect by foliage application, Wagner pot (Table 18, symbol H); type: in vivo, barnyard grass (Echinochloa crus-galli); details: 320 g/ha
In short: as §4

redroot pigweed [24] = assay: Test Example 4: herbicidal effect by soil treatment (Table 19, symbol N); type: in vivo, redroot pigweed (Amaranthus retroflexus); details: amount of applied herbicide 320 g/ha
In short: as §1

windgrass [25] = assay: Test Example 4: herbicidal effect by soil treatment (Table 19, symbol L); type: in vivo, windgrass (Apera spica-venti); details: amount of applied herbicide 320 g/ha
In short: as §1

[26] = evaluated three weeks after application

Compound: Cc1nn(C)c(=O)c(-c2c(-c3ccc4c(c3)OCC4)sc3ccccc23)c1O [1-085]
- herbicidal effect rating, K: Italian ryegrass (Italian ryegrass [1]): 5 (Herbicidal rate of 90% or more (almost completely withered))
- herbicidal effect rating, B: Japanese bulrush (Japanese bulrush): 1 (Herbicidal rate of 5% or more and less than 20%)
- herbicidal effect grade, Q: false cleavers (false cleavers [2]; three weeks after application): 5 (Herbicidal rate of 90% or more (almost completely withered))
- herbicidal effect grade, J: blackgrass (blackgrass; three weeks after application): 4 (Herbicidal rate of 70% or more and less than 90%)
- herbicidal effect grade, M: velvetleaf (velvetleaf [3]; three weeks after application): 5 (Herbicidal rate of 90% or more (almost completely withered))
- herbicidal effect on E (rice flat sedge), rating 0-5 (rice flat sedge): 5 (Herbicidal rate of 90% or more (almost completely withered))
- herbicidal effect grade, K: Italian ryegrass (Italian ryegrass [4]; three weeks after application): 5 (Herbicidal rate of 90% or more (almost completely withered))
- herbicidal effect rating, P: chickweed (chickweed [5]): 4 (Herbicidal rate of 70% or more and less than 90%)
- herbicidal effect grade, G: green foxtail (green foxtail [6]; three weeks after application): 5 (Herbicidal rate of 90% or more (almost completely withered))
- herbicidal effect grade, L: windgrass (windgrass [7]; three weeks after application): 5 (Herbicidal rate of 90% or more (almost completely withered))
- herbicidal effect rating, F: southern crabgrass (southern crabgrass [8]): 5 (Herbicidal rate of 90% or more (almost completely withered))
- herbicidal effect grade, N: redroot pigweed (redroot pigweed [9]; three weeks after application): 5 (Herbicidal rate of 90% or more (almost completely withered))
- herbicidal effect rating, G: green foxtail (green foxtail [10]): 4 (Herbicidal rate of 70% or more and less than 90%)
- herbicidal effect rating, C: oval-leafed pondweed (oval-leafed pondweed): 2 (Herbicidal rate of 20% or more and less than 40%)
- herbicidal effect grade, P: chickweed (chickweed [11]; three weeks after application): 5 (Herbicidal rate of 90% or more (almost completely withered))
- herbicidal effect rating, I: wild oat (wild oat [12]): 0 (Herbicidal rate of 5% or less (almost no effect))
- herbicidal effect rating, H: barnyard grass (barnyard grass [13]): 4 (Herbicidal rate of 70% or more and less than 90%)
- herbicidal effect rating, O: lambsquarters (lambsquarters [14]): 5 (Herbicidal rate of 90% or more (almost completely withered))
- herbicidal effect rating, R: persian speedwell (persian speedwell [15]): 4 (Herbicidal rate of 70% or more and less than 90%)
- herbicidal effect rating, Q: false cleavers (false cleavers [16]): 4 (Herbicidal rate of 70% or more and less than 90%)
- herbicidal effect grade, H: barnyard grass (barnyard grass [17]; three weeks after application): 5 (Herbicidal rate of 90% or more (almost completely withered))
- herbicidal effect on D (Chinese sprangletop), rating 0-5 (Chinese sprangletop): 4 (Herbicidal rate of 70% or more and less than 90%)
- herbicidal effect grade, R: persian speedwell (persian speedwell [18]; three weeks after application): 5 (Herbicidal rate of 90% or more (almost completely withered))
- herbicidal effect grade, O: lambsquarters (lambsquarters [19]; three weeks after application): 5 (Herbicidal rate of 90% or more (almost completely withered))
- herbicidal effect rating, A: late watergrass (late watergrass): 1 (Herbicidal rate of 5% or more and less than 20%)
- herbicidal effect grade, I: wild oat (wild oat [20]; three weeks after application): 4 (Herbicidal rate of 70% or more and less than 90%)
- herbicidal effect rating, M: velvetleaf (velvetleaf [21]): 3 (Herbicidal rate of 40% or more and less than 70%)
- herbicidal effect grade, F: southern crabgrass (southern crabgrass [22]; three weeks after application): 5 (Herbicidal rate of 90% or more (almost completely withered))
- herbicidal effect on H (barnyard grass), rating 0-5 (barnyard grass [23]): 5 (Herbicidal rate of 90% or more (almost completely withered))
- herbicidal effect rating, N: redroot pigweed (redroot pigweed [24]): 5 (Herbicidal rate of 90% or more (almost completely withered))

Compound: CCCC(=O)Oc1c(C)nn(C)c(=O)c1-c1c(-c2ccc3c(c2)OCO3)sc2ccc(Cl)cc12 [2-126]
- K: Italian ryegrass, herbicidal effect rating (Italian ryegrass [1]): 0 (Herbicidal rate of 5% or less (almost no effect))
- herbicidal effect rating, B: Japanese bulrush (Japanese bulrush): 0 (Herbicidal rate of 5% or less (almost no effect))
- herbicidal effect on Q: false cleavers (false cleavers [2]; [26]): 2 (Herbicidal rate of 20% or more and less than 40%)
- herbicidal effect on J: blackgrass (blackgrass; [26]): 0 (Herbicidal rate of 5% or less (almost no effect))
- herbicidal effect on M: velvetleaf (velvetleaf [3]; [26]): 3 (Herbicidal rate of 40% or more and less than 70%)
- herbicidal effect on K: Italian ryegrass (Italian ryegrass [4]; [26]): 0 (Herbicidal rate of 5% or less (almost no effect))
- P: chickweed, herbicidal effect rating (chickweed [5]): 3 (Herbicidal rate of 40% or more and less than 70%)
- herbicidal effect on G: green foxtail (green foxtail [6]; [26]): 0 (Herbicidal rate of 5% or less (almost no effect))
- herbicidal effect on L: windgrass (windgrass [7]; [26]): 0 (Herbicidal rate of 5% or less (almost no effect))
- F: southern crabgrass, herbicidal effect rating (southern crabgrass [8]): 0 (Herbicidal rate of 5% or less (almost no effect))
- herbicidal effect on N: redroot pigweed (redroot pigweed [9]; [26]): 1 (Herbicidal rate of 5% or more and less than 20%)
- G: green foxtail, herbicidal effect rating (green foxtail [10]): 0 (Herbicidal rate of 5% or less (almost no effect))
- herbicidal effect rating, C: oval-leafed pondweed (oval-leafed pondweed): 2 (Herbicidal rate of 20% or more and less than 40%)
- herbicidal effect on P: chickweed (chickweed [11]; [26]): 2 (Herbicidal rate of 20% or more and less than 40%)
- L: windgrass, herbicidal effect rating (windgrass [25]): 0 (Herbicidal rate of 5% or less (almost no effect))
- I: wild oat, herbicidal effect rating (wild oat [12]): 0 (Herbicidal rate of 5% or less (almost no effect))
- H: barnyard grass, herbicidal effect rating (barnyard grass [13]): 0 (Herbicidal rate of 5% or less (almost no effect))
- O: lambsquarters, herbicidal effect rating (lambsquarters [14]): 2 (Herbicidal rate of 20% or more and less than 40%)
- R: persian speedwell, herbicidal effect rating (persian speedwell [15]): 4 (Herbicidal rate of 70% or more and less than 90%)
- Q: false cleavers, herbicidal effect rating (false cleavers [16]): 0 (Herbicidal rate of 5% or less (almost no effect))
- herbicidal effect on H: barnyard grass (barnyard grass [17]; [26]): 0 (Herbicidal rate of 5% or less (almost no effect))
- herbicidal effect on R: persian speedwell (persian speedwell [18]; [26]): 5 (Herbicidal rate of 90% or more (almost completely withered))
- herbicidal effect on O: lambsquarters (lambsquarters [19]; [26]): 3 (Herbicidal rate of 40% or more and less than 70%)
- herbicidal effect rating, A: late watergrass (late watergrass): 0 (Herbicidal rate of 5% or less (almost no effect))
- herbicidal effect on I: wild oat (wild oat [20]; [26]): 0 (Herbicidal rate of 5% or less (almost no effect))
- M: velvetleaf, herbicidal effect rating (velvetleaf [21]): 0 (Herbicidal rate of 5% or less (almost no effect))
- herbicidal effect on F: southern crabgrass (southern crabgrass [22]; [26]): 0 (Herbicidal rate of 5% or less (almost no effect))
- N: redroot pigweed, herbicidal effect rating (redroot pigweed [24]): 0 (Herbicidal rate of 5% or less (almost no effect))
